# Read-outs that look alike come from different tables or passages of the source.
# How the values were obtained:
# [1] = test system: MDR1-MDCK cell monolayers; assay: Blood-brain-barrier (BBB) penetration potential via MDCK-MDR1 permeability assay
# MDR1 = assay: as above; settings: dog, MDCK-MDR1, pH 7.4, MDCK-MDR1: Efflux
# MDR1 (P-gp) = assay: as above; settings: dog; for Papp A→B at 120 min, 5 μM: MDCK-MDR1, pH 7.4, MDCK-MDR1: Papp A-B; for Papp B→A at 120 min, 5 μM: MDCK-MDR1, pH 7.4, MDCK-MDR1: Papp B-A
# [2] = test system: mHTT protein in GM04724 (CAG 70/20) Huntington's disease patient lymphoblast cells; assay: mHTT protein assay, 2B7-MW1 assay via Mesoscale Discovery (MSD); format: cell-based, human
# Outline: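 Patient lymphoblasts treated 48 h with compound from 10 μM to 0.6 nM. mHTT quantified by MSD 2B7-MW1 immunoassay, whose signal depends on polyQ expansion and HTT size. Viability measured on a replicate plate by CellTiter Glo.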
# [3] = test system: SMN protein in spinal muscular atrophy (SMA) patient fibroblasts (GM03813, Coriell); assay: SMN protein assay, Mesoscale Discovery (MSD); format: cell-based, human; settings: read-out: SMN2 protein EC50
# Outline: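 SMA patient fibroblasts (GM03813) seeded at 7000 cells/well and exposed to compound at 2.5 μM to 0.6 nM for 48 hours. Lysates assayed for SMN by MSD immunoassay, with absolute SMN amount calculated from a per-plate SMN standard curve (1 μg/ml to 19.5 pg/ml).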
# [4] = test system: SMN FL and SMN Δ7 in spinal muscular atrophy (SMA) patient fibroblasts (GM03813, Coriell); assay: Quantitative splicing assay (SMN), qPCR; format: cell-based, human; settings: Homo sapiens, Fibroblast, 24 h, read-out: SMN2 Splicing FL EC50
# Protocol: Spinal muscular atrophy (SMA) patient fibroblasts (GM03813, Coriell) are plated in 96-well plates at 50,000 cells/well. […] Treated cells are lysed and cDNA synthesized using the Fast Advanced Cells-to-Ct kit (Thermofisher A35378) according to the manufacturer's instructions. 2 μL of each cDNA are used in qPCR reactions. […] Reactions are run in a Quant Studio 6 qPCR instrument with default settings.
# [5] = GM04724 Huntington's disease patient lymphoblasts
# [6] = SMA patient fibroblasts GM03813, 48 hours, MSD
# [7] = SMA patient fibroblasts GM03813, 24 h, qPCR
# [8] = GM04724 (CAG 70/20) Huntington's disease patient lymphoblasts
# [9] = SMA patient fibroblasts (GM03813), 48 hours
# [10] = SMA patient fibroblasts (GM03813)
SMILES,MDCK-MDR1: % Recov A-B ([1]; A-B direction),MDCK-MDR1: % Recov B-A ([1]; B-A direction),"efflux ratio at 120 min, 5 μM (MDR1; efflux ratio)","Papp A→B at 120 min, 5 μM (MDR1 (P-gp); A-B direction)","Papp B→A at 120 min, 5 μM (MDR1 (P-gp); B-A direction)","EC50 [2, 5]","EC50 [3, 6]","EC50 [4, 7]",MDCK-MDR1: % Recov A-B ([1]; A-B),MDCK-MDR1: % Recov B-A ([1]; B-A),"efflux ratio at 120 min, 5 μM (MDR1)","Papp A→B at 120 min, 5 μM (MDR1 (P-gp); A-B)","Papp B→A at 120 min, 5 μM (MDR1 (P-gp); B-A)","EC50 [2, 8]","EC50 [3, 9]","EC50 [4, 10]","mHTT protein EC50 [2, 8]"
"CN(c1ccc(-c2ccc(-n3cnc(C#N)c3)cc2O)nn1)[C@H]1C[C@@H]2CCC[C@@H](N2)[C@H]1F [Compound 63B, 1-(4-(6-(((1R,2R,3S,5S)-2-fluoro-9-azabicyclo[3.3.1]nonan-3-yl)(methyl)amino)pyridazin-3-yl)-3-hydroxyphenyl)-1H-imidazole-4-carbonitrile]",72%,96%,19,2.31 ×10⁻⁶ cm/s,44.9 ×10⁻⁶ cm/s,16 to 50 nM,0.01 to 15 nM,16 to 50 nM,,,,,,,,,
"CN(c1ccc(-c2ccc(-n3cnc(C#N)c3)cc2O)nn1)[C@@H]1C[C@H]2CC[C@H](N2)[C@@H]1F [Compound 69A, 1-(4-(6-(((1S,2S,3R,5R)-2-fluoro-8-azabicyclo[3.2.1]octan-3-yl)(methyl)amino)pyridazin-3-yl)-3-hydroxyphenyl)-1H-imidazole-4-carbonitrile]",87%,86%,29,1.36 ×10⁻⁶ cm/s,39.4 ×10⁻⁶ cm/s,101 to 500 nM,16 to 50 nM,51 to 100 nM,,,,,,,,,
"CN(c1ccc(-c2ccc(-n3cnc(C#N)c3)cc2O)nn1)[C@H]1C[C@@H]2CC[C@@H](N2)[C@H]1F [Compound 69B, 1-(4-(6-(((1R,2R,3S,5S)-2-fluoro-8-azabicyclo[3.2.1]octan-3-yl)(methyl)amino)pyridazin-3-yl)-3-hydroxyphenyl)-1H-imidazole-4-carbonitrile]",88%,90%,35,1.51 ×10⁻⁶ cm/s,52.3 ×10⁻⁶ cm/s,16 to 50 nM,0.01 to 15 nM,51 to 100 nM,,,,,,,,,
"CN(c1ccc(-c2cc3cccnc3cc2O)nn1)[C@@H]1C[C@H]2CC[C@H](N2)[C@@H]1F [Compound 74A, 6-(6-(((1S,2S,3R,5R)-2-fluoro-8-azabicyclo[3.2.1]octan-3-yl)(methyl)amino)pyridazin-3-yl)quinolin-7-ol]",69%,81%,14,3.13 ×10⁻⁶ cm/s,44.5 ×10⁻⁶ cm/s,16 to 50 nM,16 to 50 nM,101 to 500 nM,,,,,,,,,
"CN(c1ccc(-c2cc3ncn(CC(F)(F)F)c(=O)c3cc2O)nn1)[C@@H]1C[C@H]2CC[C@H](N2)[C@@H]1F [Compound 81A, 7-(6-(((1S,2S,3R,5R)-2-fluoro-8-azabicyclo[3.2.1]octan-3-yl)(methyl)amino)pyridazin-3-yl)-6-hydroxy-3-(2,2,2-trifluoroethyl)quinazolin-4(3H)-one]",100%,94%,139,0.37 ×10⁻⁶ cm/s,51 ×10⁻⁶ cm/s,101 to 500 nM,16 to 50 nM,51 to 100 nM,,,,,,,,,
"CN(c1ccc(-c2cc3ncn(CC(F)(F)F)c(=O)c3cc2O)nn1)[C@H]1C[C@@H]2CC[C@@H](N2)[C@H]1F [Compound 81B, 7-(6-(((1R,2R,3S,5S)-2-fluoro-8-azabicyclo[3.2.1]octan-3-yl)(methyl)amino)pyridazin-3-yl)-6-hydroxy-3-(2,2,2-trifluoroethyl)quinazolin-4(3H)-one]",96%,100%,138,0.4 ×10⁻⁶ cm/s,54.6 ×10⁻⁶ cm/s,51 to 100 nM,0.01 to 15 nM,16 to 50 nM,,,,,,,,,
"CN(c1ccc(-c2cc3nccnc3cc2O)nn1)[C@@H]1C[C@H]2CC[C@H](N2)[C@@H]1F [Compound 88A, 7-(6-(((1S,2S,3R,5R)-2-fluoro-8-azabicyclo[3.2.1]octan-3-yl)(methyl)amino)pyridazin-3-yl)quinoxalin-6-ol]",85%,99%,9,4.84 ×10⁻⁶ cm/s,45.7 ×10⁻⁶ cm/s,51 to 100 nM,16 to 50 nM,101 to 500 nM,,,,,,,,,
"CN(c1ccc(-c2cc3nnccc3cc2O)nn1)[C@@H]1C[C@H]2CC[C@H](N2)[C@@H]1F [Compound 89A, 7-(6-(((1S,2S,3R,5R)-2-fluoro-8-azabicyclo[3.2.1]octan-3-yl)(methyl)amino)pyridazin-3-yl)cinnolin-6-ol]",92%,106%,51,1.31 ×10⁻⁶ cm/s,67.3 ×10⁻⁶ cm/s,101 to 500 nM,16 to 50 nM,101 to 500 nM,,,,,,,,,
"Cc1cc(=O)c2cc(O)c(-c3ccc(N(C)[C@H]4C[C@@H]5CC[C@H]([C@H]4F)N5C)nn3)cc2o1 [Compound 99B, 7-(6-(((1R,2R,3S,5S)-2-fluoro-8-methyl-8-azabicyclo[3.2.1]octan-3-yl)(methyl)amino)pyridazin-3-yl)-6-hydroxy-2-methyl-4H-chromen-4-one]",,,,,,,,,103%,112%,21,2.74 ×10⁻⁶ cm/s,56.7 ×10⁻⁶ cm/s,101 to 500 nM,0.01 to 15 nM,51 to 100 nM,
"Cc1cc(=O)c2cc(-c3ccc(N(C)[C@@H]4C[C@H]5CC[C@@H]([C@@H]4F)N5C)nn3)c(O)cc2o1 [Compound 100A, 6-(6-(((1S,2S,3R,5R)-2-fluoro-8-methyl-8-azabicyclo[3.2.1]octan-3-yl)(methyl)amino)pyridazin-3-yl)-7-hydroxy-2-methyl-4H-chromen-4-one]",,,,,,,,,80%,102%,6,6.34 ×10⁻⁶ cm/s,40.7 ×10⁻⁶ cm/s,,51 to 100 nM,101 to 500 nM,E (501 ≤ E ≤ 10.000)
"Cc1cc(=O)c2cc(-c3ccc(N(C)[C@H]4C[C@@H]5CC[C@H]([C@H]4F)N5C)nn3)c(O)cc2o1 [Compound 100B, 6-(6-(((1R,2R,3S,5S)-2-fluoro-8-methyl-8-azabicyclo[3.2.1]octan-3-yl)(methyl)amino)pyridazin-3-yl)-7-hydroxy-2-methyl-4H-chromen-4-one]",,,,,,,,,79%,80%,4,9.57 ×10⁻⁶ cm/s,38.7 ×10⁻⁶ cm/s,51 to 100 nM,16 to 50 nM,16 to 50 nM,
"CN(c1ccc(-c2cc3ncn(C)c(=O)c3cc2O)nn1)[C@H]1C[C@@H]2CC[C@H]([C@H]1F)N2C [Compound 101B, 7-(6-(((1R,2R,3S,5S)-2-fluoro-8-methyl-8-azabicyclo[3.2.1]octan-3-yl)(methyl)amino)pyridazin-3-yl)-6-hydroxy-3-methylquinazolin-4(3H)-one]",,,,,,,,,118%,119%,24,2.41 ×10⁻⁶ cm/s,59.1 ×10⁻⁶ cm/s,51 to 100 nM,0.01 to 15 nM,51 to 100 nM,
"CN(c1ccc(-c2cc3c(=O)n(C)cnc3cc2O)nn1)[C@H]1C[C@@H]2CC[C@H]([C@H]1F)N2C [Compound 102B, 6-(6-(((1R,2R,3S,5S)-2-fluoro-8-methyl-8-azabicyclo[3.2.1]octan-3-yl)(methyl)amino)pyridazin-3-yl)-7-hydroxy-3-methylquinazolin-4(3H)-one]",,,,,,,,,91%,91%,30,1.63 ×10⁻⁶ cm/s,48.1 ×10⁻⁶ cm/s,51 to 100 nM,16 to 50 nM,101 to 500 nM,
"CN(c1ccc(-c2cc(F)c(-n3ccnn3)cc2O)nn1)[C@H]1C[C@@H]2CC[C@H]([C@H]1F)N2C [Compound 103B, 4-fluoro-2-(6-(((1R,2R,3S,5S)-2-fluoro-8-methyl-8-azabicyclo[3.2.1]octan-3-yl)(methyl)amino)pyridazin-3-yl)-5-(1H-1,2,3-triazol-1-yl)phenol]",,,,,,,,,95%,94%,4,12.6 ×10⁻⁶ cm/s,49.1 ×10⁻⁶ cm/s,,51 to 100 nM,101 to 500 nM,E (501 ≤ E ≤ 10.000)

# From US12509460B2 (Skyhawk Therapeutics, Inc., priority 2019, dated 2025)
